Source: patent publication US4555572A, “Pyrazolo[3,4,5-kl]acridine compositions and methods for their production and use” (Warner-Lambert Company, priority 1984, dated 1985)
Counter-ions that a name gives are not always drawn. Like-named read-outs stand apart in the source and are kept apart here.

Assays:
Sarcina lutea = test: in vitro antibacterial/antifungal (ABF) agar-disk diffusion assay; assay type: cell-based; settings: Micrococcus luteus, read-out: ABF zone diameter S. lutea; for zone of inhibition at 500 µg/mL: dose .5 mg/ml; for zone of inhibition at 1000 µg/mL: dose 1 mg/ml
Procedure: (§1) (b) Another test protocol is the in vitro antibacterial/antifungal (ABF) test. Compounds are tested for antimicrobial activity in an agar-disk diffusion assay, a standard microbiological technique for testing antibiotics. After incubation of each culture with a test compound, a zone of inhibition is determined. The zone diameter (mm) of active compounds ranges from a minimum of 14 mm to as high as 60 mm, with a greater diameter reflecting higher activity. For convenience, values are reported for (Alcaligenes viscolactis, Sarcina lutea, Branhamella catarrhalis, Bacillus subtilis, and Streptococcus faecalis.

Branhamella catarrhalis [1] = test: as above; assay type: cell-based; settings: Moraxella catarrhalis, read-out: ABF zone diameter B. catarrh.; for zone of inhibition at 100 µg/mL: dose .1 mg/ml
Procedure: as §1

Alcaligenes viscolactis [2] = test: as above; assay type: cell-based; settings: read-out: ABF zone diameter A. viscol.; for zone of inhibition at 100 µg/mL: dose .1 mg/ml
Procedure: as §1

Bacillus subtilis = test: as above; assay type: cell-based; settings: for zone of inhibition at 100 µg/mL: dose .1 mg/ml; for ABF zone diameter B. subtil.: dose not given
Procedure: as §1

Streptococcus faecalis = test: as above; assay type: cell-based; settings: Enterococcus faecalis, read-out: ABF zone diameter S. faecalis; for zone of inhibition at 500 µg/mL: dose .5 mg/ml; for zone of inhibition at 1000 µg/mL: dose 1 mg/ml
Procedure: as §1

[3] = tested on: lymphocytic leukemia P388; test: in vivo lymphocytic leukemia P388 test; set-up: species or system CD2 F1 mice; settings: Mus musculus, P388, ip, 120 h
Method in brief: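 CD2 F1 mice (6–7 per group) inoculated i.p. with P388 ascitic cells; compound dosed i.p. once daily for 5 consecutive days after inoculation. Survival followed 30 days; efficacy as treated/control survival time ×100 (≥125 criterion); "toxic" if all animals died within 4 days of first dose.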

HCT-8 cells = test: in vitro proliferating human colon adenocarcinoma (HCA) cell screen, HCT-8; assay type: cell-based
Method in brief: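 HCT-8 colon adenocarcinoma cells seeded in RPMI 1640 + 10% FCS, grown 48 h, then exposed to compounds for 60-65 h at 37 °C, 5% CO2. Nuclei counted by Coulter counter after lysis; ID50 is the molar concentration giving 50% growth inhibition.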

L1210 cells = test: PDC test, L1210 cell growth; assay type: cell-based, murine; settings: Mus musculus, L1210, 72 h, read-out: PDC ID50
Branhamella catarrhalis [4] = test: in vitro antibacterial (ABMF) microdilution susceptibility test; assay type: cell-based; settings: Moraxella catarrhalis, read-out: ABMF Test M.I.C. B. cata.
Method in brief: (§2)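 Standard microdilution susceptibility in Mueller-Hinton broth: inoculated wells contain test compound at 1000, 333, 111, 37, 12, 4, 1.4 and 0.46 μg/mL.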

Alcaligenes viscolactis [5] = test: as above; assay type: cell-based; settings: read-out: ABMF Test M.I.C. A. visc.
Method in brief: as §2

Bacillus cereus = test: as above; assay type: cell-based; settings: read-out: ABMF Test M.I.C. B. cere.
Method in brief: as §2

Escherichia coli = test: as above; assay type: cell-based; settings: read-out: ABMF Test M.I.C. E. coli
Method in brief: as §2

Streptococcus pneumoniae = test: as above; assay type: cell-based; settings: read-out: ABMF Test M.I.C. S. pneu.
Method in brief: as §2

[6] = Bacillus subtilis, read-out: ABF zone diameter B. subtil.
[7] = 3.12 mg/kg, intraperitoneally once daily for five days, read-out: P388 in vivo T/C × 100
[8] = 6.25 mg/kg, intraperitoneally once daily for five days, read-out: P388 in vivo T/C × 100
[9] = 12.5 mg/kg, intraperitoneally once daily for five days, read-out: P388 in vivo T/C × 100
[10] = intraperitoneally once daily for five days, read-out: P388 in vivo T/C × 100
[11] = HCT-8 cells, 60 to 65 hours, molar concentration for 50% inhibition of growth, read-out: HCA in vitro ID50 avg.

Structure (SMILES)	zone of inhibition at 500 µg/mL (Sarcina lutea) [mm]	zone of inhibition at 100 µg/mL (Alcaligenes viscolactis [2]) [mm]	zone of inhibition at 100 µg/mL (Bacillus subtilis; [6]) [mm]	zone of inhibition at 500 µg/mL (Streptococcus faecalis) [mm]	response vs control in vivo at 6.25 mg/kg [3, 8] [%]	response vs control in vivo at 12.5 mg/kg [3, 9] [%]	response vs control in vivo at 25 mg/kg [3, 10] [%]	zone of inhibition at 100 µg/mL (Branhamella catarrhalis [1]) [mm]	response vs control in vivo at 50 mg/kg [3, 10] [%]	IC50 (HCT-8 cells; [11]) [nM]	further results
O=[N+]([O-])c1ccc2c3c(nn2CCNCCO)-c2ccccc2Nc13 [Example 3, 2-[[2-(5-Nitropyrazolo[3,4,5-kl[acridin-2(6H)-yl)ethyl]amino]ethanol, monohydrochloride]	14	21	18	15	132	158	185				zone of inhibition at 500 µg/mL (Branhamella catarrhalis [1]; dose .5 mg/ml): 25 mm; response vs control in vivo at 3.12 mg/kg [3, 7]: 122%
CN1c2ccccc2-c2nn(CCNCCO)c3ccc([N+](=O)[O-])c1c23 [Example 4, 2-[[2-[6-Methyl-5-nitropyrazolo[3,4,5-kl-acridin-2-(6H)-yl]ethyl]amino]ethanol, methanesulfonate]	19	19	20	18			120	16	180		
CCN(CC)CCn1nc2c3c(c([N+](=O)[O-])ccc31)Nc1ccc(OC)cc1-2 [Example 5, N,N-Diethyl-9-methoxy-5-nitropyrazolo-[3,4,5-kl]acridine-2(6H)-ethanamine, methanesulfonate (1:1)]	14	18	15		158	197	242	16		120	zone of inhibition at 1000 µg/mL (Streptococcus faecalis): 14 mm; response vs control in vivo at 3.12 mg/kg [3, 7]: 143%
CCN(CC)CCn1nc2c3c(c([N+](=O)[O-])ccc31)Nc1ccc(O)cc1-2 [Example 10, 2-[2-(Diethylamino)ethyl]-2,6-dihydro-5-nitropyrazolo[3,4,5 kl]acridin-9-ol, monomethanesulfonate]			17	16				18		13	zone of inhibition at 1000 µg/mL (Sarcina lutea): 14 mm; zone of inhibition at 10 µg/mL (Alcaligenes viscolactis [2]; dose .01 mg/ml): 15 mm; response vs control in vivo at 0.38 mg/kg ([3]; 0.38 mg/kg, intraperitoneally once daily for five days, read-out: P388 in vivo T/C × 100): 138%; response vs control in vivo at 0.75 mg/kg ([3]; 0.75 mg/kg, intraperitoneally once daily for five days, read-out: P388 in vivo T/C × 100): 149%; response vs control in vivo at 1.5 mg/kg ([3]; 1.50 mg/kg, intraperitoneally once daily for five days, read-out: P388 in vivo T/C × 100): 158%; response vs control in vivo at 3 mg/kg ([3]; 3.00 mg/kg, intraperitoneally once daily for five days, read-out: P388 in vivo T/C × 100): 180%
COc1ccc2c(c1)-c1nn(CCNCCO)c3ccc([N+](=O)[O-])c(c13)N2 [Example 7, 2-[[2-(9-Methoxy-5-nitropyrazolo[3,4,5-kl]-acridin-2(6H)yl)ethyl]aminoethanol, monohydrochloride]					138	138	149	14	163		zone of inhibition at 1000 µg/mL (Sarcina lutea): 14 mm; zone of inhibition at 500 µg/mL (Bacillus subtilis; Bacillus subtilis, dose .5 mg/ml, read-out: ABF zone diameter B. subtil.): 18 mm; zone of inhibition at 1000 µg/mL (Streptococcus faecalis): 14 mm
CCN(CC)CCn1nc2c3c(c([N+](=O)[O-])ccc31)N(C)c1ccccc1-2 [Example 2, N,N-Diethyl-6-methyl-5-nitropyrazolo[3,4,5-kl]acridine-2(6H)-ethanamine, methanesulfonate]		20	18	16		126	184	17		1000	
CCN(CC)CCn1nc2ccc([N+](=O)[O-])c3c2c1-c1cc(OC)ccc1N3.CS(=O)(=O)O [Example 9, N,N-Diethyl-9-methoxy-5-nitropyrazolo[3,4,5-kl]acridine-1(6H)-ethanamine, monomethanesulfonate]				18		120	135	16	167		zone of inhibition at 100 µg/mL (Sarcina lutea; dose .1 mg/ml): 14 mm; ABF zone diameter B. subtil. (Bacillus subtilis): 15 mm
CCN(CC)CCn1nc2ccc([N+](=O)[O-])c3c2c1-c1ccccc1N3 [Example 8, yl-5-nitropyrazolo[3,4,5-kl]acridine-1(6H)-ethanamine, monomethanesulfonate]	18	23		18		140			211		zone of inhibition at 10 µg/mL (Branhamella catarrhalis [1]; dose .01 mg/ml): 15 mm; ABF zone diameter B. subtil. (Bacillus subtilis): 0 mm
COc1ccc2c(c1)-c1nn(CCN(C)C)c3c([N+](=O)[O-])cc([N+](=O)[O-])c(c13)N2 [Example 54, 9-Methoxy-N,N-dimethyl-3,5-dinitropyrazolo[3,4,5-kl]acridine-2(6H)-ethanamine, methanesulfonate (1:1), hydrate]											IC50 (L1210 cells): 220 nM; MIC (Branhamella catarrhalis [4]): 0.46 µg/mL; MIC (Alcaligenes viscolactis [5]): 0.46 µg/mL; MIC (Bacillus cereus): 0.46 µg/mL; MIC (Escherichia coli): 0.46 µg/mL; MIC (Streptococcus pneumoniae): 0.46 µg/mL; IC50 (HCT-8 cells; HCT-8, read-out: HCA in vitro ID50 avg.): 55 nM; response vs control in vivo at 1.56 mg/kg ([3]; read-out: P388 in vivo T/C × 100, 1.56 mg/kg, intraperitoneally once daily for five days): 132%; response vs control in vivo at 3.12 mg/kg ([3]; read-out: P388 in vivo T/C × 100, 3.12 mg/kg, intraperitoneally once daily for five days): 137%; response vs control in vivo at 6.25 mg/kg ([3]; read-out: P388 in vivo T/C × 100, 6.25 mg/kg, intraperitoneally once daily for five days): 169%; response vs control in vivo at 12.5 mg/kg ([3]; read-out: P388 in vivo T/C × 100, 12.5 mg/kg, intraperitoneally once daily for five days): 236%
